Measured values as given in patent US7022711B2, “2-(4-Pyridyl)amino-6-dialkoxyphenyl-pyrido[2,3-d]pyrimidin-7-ones” (Warner-Lambert Company, priority 2000, dated 2006).

Target: T1, VEGFR-2 (Homo sapiens, UniProt P35968)
T1 construct: The kinase domains from FGFR-1, VEGFR-2, Lck, and PDGF were purified from baculoviral vectors expression systems; made in house
Experiment: Kinase inhibition assay (DELFIA), VEGF-2
Format: biochemical
Conditions: 40 μM ATP, kinase domain 20 nM
Method: DELFIA plates (EG&G Wallac, Gaithersburg, Md.) were coated overnight with Poly Glu Tyr (4:1) (Sigma, St. Louis, Mo.) at room temperature, washed (DELFIA wash reagent, EG&G Wallac), and spotted with 1 μL inhibitor dilution or DMSO carrier control per well. In some cases, kinase was autophosphorylated prior to analysis by incubating 45 minutes at 4° C. in the presence of 4 mM ATP and 25 mM MgCl2. A typical 100 μL kinase assay reaction contained 20 mM Tris (pH 7.5), 20 mM MgCl2, 50 mM NaCl, 5 mM DTT, and protease inhibitors (Mini EDTA-free protease inhibitor cocktail tablets, Boehringer Mannheim, Indianapolis, Ind.), 40 μM ATP, and an appropriate concentration of inhibitor. The reaction was allowed to continue for 30 minutes at room temperature. Plates were washed, blocked 30 minutes at room temperature (0.5% bovine serum albumin in DELFIA Assay Buffer, EG&G Wallac), and washed. One hundred microliter europium-conjugated antiphosphotyrosine antibody in DELFIA assay buffer was added to each well. Plates were incubated for 1 hour and decanted. […] Compounds were tested from 10 through 0.0001 μM. c-Src was (Upstate Biotechnology, Lake Placid, N.Y.) was used at 3 units per reaction. The kinase domains from FGFR-1, VEGFR-2, Lck, and PDGF were purified from baculoviral vectors expression systems and were used in the assays at 20 nM.

T1 sequence (P35968 834-1162 limits assumed, species assumed): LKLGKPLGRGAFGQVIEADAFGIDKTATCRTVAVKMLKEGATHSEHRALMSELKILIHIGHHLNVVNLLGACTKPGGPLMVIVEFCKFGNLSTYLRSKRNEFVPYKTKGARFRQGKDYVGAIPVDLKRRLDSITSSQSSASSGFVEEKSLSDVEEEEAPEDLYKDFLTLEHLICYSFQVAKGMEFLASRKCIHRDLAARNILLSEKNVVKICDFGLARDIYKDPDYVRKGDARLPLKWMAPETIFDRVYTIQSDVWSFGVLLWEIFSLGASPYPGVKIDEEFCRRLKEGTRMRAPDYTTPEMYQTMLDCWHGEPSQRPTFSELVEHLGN

“6-(3,5-Dimethoxy-phenyl)-8-ethyl-2-(pyridin-4-ylamino)-8H-pyrido[2,3-d]pyrimidin-7-one [Example 8]” was tested, and the IC50 was 0.02 µM.
